The values below come from PubChem BioAssay AID1228 (The Scripps Research Institute Molecular Screening Center, 2008).

Structures are written as SMILES. Active and inactive are the calls of the source.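 The calls were made as follows: active = EC50 at or below 10 µM; inactive = EC50 above 10 µM.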 A value given as a limit tells only on which side of the number the result lay.

For the assay, the system named is CHO NFAT-BLA reporter, FRET beta-lactamase activation counterscreen. Kind of assay: NFAT-BLA reporter activators, potency curves, dose response, counter-screen for GALR2 agonist project, CHO NFAT-bla cells, FRET readout (AID 1228). (In general: The purpose of a counterscreen is to sort out artefacts and off-target activity.)
`Cc1cc(C)c2nc(NNC(=O)c3ccc(S(=O)(=O)N4CC(C)CC(C)C4)cc3)sc2c1` (stereo unspecified): the EC50 (commonly the concentration giving half of the maximal effect) was > 55.7 µM (inactive).

Regarding `CC1=C/C(=N\OS(=O)(=O)c2ccccc2)C(C(C)C)=CC1=O`, the EC50 was > 55.7 µM (inactive).

Regarding `C=CCNC(=O)/C(C#N)=C/c1cn(-c2ccccc2)nc1-c1cccs1`, the EC50 was > 55.7 µM (inactive).

For `COc1cc2c3cc1Oc1cc(ccc1O)C[C@@H]1c4c(cc(OC)c(O)c4Oc4ccc(cc4)C[C@H]3N(C)CC2)CCN1C`, the EC50 was > 55.7 µM (inactive).

Consider `Cc1c2ccncc2c(C)c2c1[nH]c1ccccc12`, for which the EC50 was > 55.7 µM (inactive).

On to `Cc1cccc2sc(NNC(=O)c3ccc(S(=O)(=O)N4CC(C)CC(C)C4)cc3)nc12` (stereo unspecified), for which the EC50 is > 55.7 µM (inactive).

For `Cc1cccc2sc(NNC(=O)c3ccc(S(=O)(=O)N4CCCC(C)C4)cc3)nc12` (stereo unspecified), the EC50 is > 55.7 µM (inactive).

Turning to `CCOc1ccc(Br)cc1C(=O)Nc1ccc(C(=O)NCC(C)C)cc1`, the EC50 is > 55.7 µM (inactive).

As for `CCCOc1ccc(C(=O)C(CCC(CNCC)C(=O)c2ccc(OCCC)cc2)CNCC)cc1` (stereo unspecified), the EC50 was > 55.7 µM (inactive).

In the case of `Cc1ccc2nsnc2c1NC(=O)c1ccc(-c2cc(Cl)ccc2Cl)o1`, the EC50 is > 55.7 µM (inactive).

In the case of `Cc1cc(C)c2nc(NNC(=O)c3ccc(S(=O)(=O)N4CCCC(C)C4)cc3)sc2c1` (stereo unspecified), the EC50 is > 55.7 µM (inactive).
